Measured values: PMC10445491 (Frontiers in Chemistry, 2023)
Entries after “also recorded” stand apart in the source; their conditions may differ. Like-named read-outs stand apart in the source and are kept apart here.

Experiments:
[1] = target: neuraminidase from Clostridium perfringens (BNA) (Clostridium perfringens, UniProt P10481); assay type: binding
[2] = system: neuraminidase from Clostridium perfringens (BNA, EC 3.2.1.18); assay type: biochemical; conditions: for fold higher inhibition than compound 6: ratio of IC50 vs compound 6
[3] = target: neuraminidase from Clostridium perfringens (BNA); assay type: biochemical; conditions: for Kinetic mode: Lineweaver-Burk and Dixon plots
[4] = sodium acetate buffer pH 5.0, substrate 100 μM, BNA 0.02 unit/mL, triplicate, read-out: IC50
[5] = Dixon plots, read-out: K i (inhibition constant)

neuraminidase from Clostridium perfringens (BNA) (Clostridium perfringens, UniProt P10481), sequence (P10481 whole entry, looked up): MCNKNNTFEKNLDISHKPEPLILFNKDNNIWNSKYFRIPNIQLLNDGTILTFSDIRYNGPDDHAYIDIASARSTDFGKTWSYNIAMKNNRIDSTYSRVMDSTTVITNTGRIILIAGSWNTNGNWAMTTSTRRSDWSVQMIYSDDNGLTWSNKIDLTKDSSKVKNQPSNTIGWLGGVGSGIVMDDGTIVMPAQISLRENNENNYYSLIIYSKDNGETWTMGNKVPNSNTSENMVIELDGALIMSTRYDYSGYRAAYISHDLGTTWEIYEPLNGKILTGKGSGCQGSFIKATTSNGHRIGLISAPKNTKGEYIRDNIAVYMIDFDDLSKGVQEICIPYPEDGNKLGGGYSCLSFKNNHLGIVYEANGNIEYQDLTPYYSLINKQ

C=C(C)C(O)CC/C(C)=C/Cc1c(O)c(CC=C(C)C)c(O)c2c(=O)c3cc(O)ccc3oc12 (stereo not shown) [Compound 1, (E)-1,3,7-trihydroxy-4-(6-hydroxy-3,7-dimethylocta-2,7-dien-1-yl)-2-(3-methylbut-2-en-1-yl)-9H-xanthen-9-one]
Change of BNA fluorescence (FS) intensity with increasing inhibitor concentration [1]: decreased dramatically
K A (affinity constant) [1]: 244300 L/mol
K SV (Stern-Volmer constant) [1]: 157920 L/mol
n (binding number of xanthone to the BNA) [1]: 1.2897
fold more effective than compound 3 ([2]; ratio of IC50 vs compound 3): 100 fold
fold higher inhibition than compound 6 [2]: 30 fold
IC50 [2, 4]: 0.38 ± 0.03 µM
Ki [3, 5]: 0.17 µM
Kinetic mode [3]: competitive inhibitor
Time-dependent (slow-binding) behaviour ([3]; preincubation 0-75 min): reversible slow-binding inhibition; also recorded: simple slow-binding inhibitor; also recorded: simple reversible slow binding behavior
Reversibility of inhibition ([3]; residual activity vs enzyme concentration (0.01, 0.02, 0.04 unit/mL)): reversible inhibitor
k 3 ([3]; slow-binding inhibition, forward rate of enzyme-inhibitor complex formation): 141000 M⁻¹ s⁻¹
Ki ([3]; slow-binding inhibition, preincubation with 0, 0.2, 0.4, 0.8 µM inhibitor, read-out: K i app): 0.144 µM
k 4 ([3]; slow-binding inhibition, reverse rate): 0.0203 min⁻¹

CC(C)=CCc1c(O)c(C/C=C(\C)C/C=C/C(C)(C)O)c2oc3ccc(O)cc3c(=O)c2c1O [Compound 3, 1,3,7-trihydroxy-4-[(2E,5E)-7-hydroxy-3,7-dimethylocta-2,5-dien-1-yl]-2-(3-methylbut-2-en-1-yl)-9H-xanthen-9-one]
K A (affinity constant) [1]: 20 L/mol
K SV (Stern-Volmer constant) [1]: 1000 L/mol
n (binding number of xanthone to the BNA) [1]: 0.2168
IC50 [2, 4]: 35.8 ± 0.7 µM
Ki [3, 5]: 38.2 µM
Kinetic mode [3]: Non-competitive

C=C(C)CC(O)c1c(O)c(C/C=C(\C)CCC=C(C)C)c2oc3ccc(O)cc3c(=O)c2c1O (stereo not shown) [Compound 4, cratoxanthone A]
K A (affinity constant) [1]: 55450 L/mol
K SV (Stern-Volmer constant) [1]: 27140 L/mol
n (binding number of xanthone to the BNA) [1]: 0.7819
fold higher inhibition than compound 6 [2]: 3 fold
IC50 [2, 4]: 3.8 ± 0.1 µM
Ki [3, 5]: 4.2 µM
Kinetic mode [3]: Non-competitive

C=C(CCC=C(C)C)C(O)Cc1c(O)c(CC=C(C)C)c(O)c2c(=O)c3cc(O)ccc3oc12 (stereo not shown) [Compound 5, cratoxanthon F]
K A (affinity constant) [1]: 1030 L/mol
K SV (Stern-Volmer constant) [1]: 10230 L/mol
n (binding number of xanthone to the BNA) [1]: 0.4992
IC50 [2, 4]: 9.2 ± 0.2 µM
Ki [3, 5]: 9.1 µM
Kinetic mode [3]: Non-competitive

CC(C)=CCC/C(C)=C/Cc1c(O)c(CC=C(C)C)c(O)c2c(=O)c3cc(O)ccc3oc12 [Compound 6, cochinechinone A]
K A (affinity constant) [1]: 1800 L/mol
K SV (Stern-Volmer constant) [1]: 9860 L/mol
n (binding number of xanthone to the BNA) [1]: 0.4337
fold more effective relative to gentisein ([2]; ratio of IC50 vs gentisein): 2 fold
IC50 [2, 4]: 9.8 ± 0.3 µM
Ki [3, 5]: 9.6 µM
Kinetic mode [3]: non-competitive inhibitor

O=c1c2cc(O)ccc2oc2cc(O)cc(O)c12 [Gentisein, reference compound]
K A (affinity constant) [1]: 110 L/mol
K SV (Stern-Volmer constant) [1]: 5350 L/mol
n (binding number of xanthone to the BNA) [1]: 0.3701
IC50 [2, 4]: 21.4 ± 0.5 µM
IC50 ([2]; text in the panels of supplementary Figure S36, read-out: IC50 printed in Figure S36): 21.4 µM

(E)-1,3,7-trihydroxy-4-(7-hydroxy-3,7-dimethyloct-2-en-1-yl)-2-(3-methylbut-2-en-1-yl)-9H-xanthen-9-one [Compound 2]
Change of BNA fluorescence (FS) intensity with increasing inhibitor concentration [1]: did not decrease
K A (affinity constant) [1]: 20 L/mol
K SV (Stern-Volmer constant) [1]: 970 L/mol
n (binding number of xanthone to the BNA) [1]: 0.1796
IC50 [2, 4]: 38.9 ± 0.6 µM
Ki [3, 5]: 40.7 µM
Kinetic mode [3]: Non-competitive
